Results on two molecules are retold here after patent US20130115181A1, “AQUEOUS PHARMACEUTICAL SYSTEM FOR THE ADMINISTRATION OF DRUGS TO THE NAILS” (UNIVERSIDADE DE SANTIAGO DE COMPOSTELA, priority 2010, published 2013).

The nature of data set [1]: Ciclopirox olamine solubility in Pluronic F127NF / cyclodextrin systems. The conditions noted are these: systems with Pluronic F127NF, HPB or MBCD; 25° C. It counts as physicochemical. On the procedure: Dispersions of Pluronic F127NF (0, 10 and 15%) were prepared incorporating hydroxypropyl-β-cyclodextrin or partially methylated β-cyclodextrin at concentrations of 0, 0.5% and 10%. Ciclopirox olamine was added in amounts that far exceeded its aqueous solubility and was stirred at 25° C. for a week. The amount of dissolved ciclopirox was determined spectrophotometrically after filtering the dispersions. Pluronic F127NF dispersions containing 10% of hydroxypropyl-β-cyclodextrin or partially methylated β-cyclodextrin (5% or 10%) and N-acetylcysteine (5-10%) or urea (10-20%) has been studied.

A short description of data set [2]: Penetration of ciclopirox olamine through calf hoof, Franz-Chien cells. The conditions noted are these: solutions in the absence of N-acetylcysteine. Format: in vitro ADME. How it is done: Thermosensitive systems used in penetration studies were prepared as it follows:
1.—Dispersion of the Pluronic F127NF to 20% in cold water with magnetic stirring until complete dissolution.
2.- Ciclopirox olamine was incorporated in adequate quantities for concentrations close to saturation (see FIG. 3). […]
In the formulations prepared with partially methylated β-cyclodextrin, it was incorporated into the system at a concentration of 10% prior to the dissolution of triamcinolone acetonide, allowing soluble increasing doses of the drug (see FIG. 3).
Penetration studies were performed with cylindrical thin slices of calf hoof membrane (0.8-1 mm). The bovine hoof samples were placed using two Teflon adapters between the donor and acceptor compartment of vertical Franz-Chien penetration cells. In the receptor compartment, phosphate buffer (pH 7.4) was added and maintained at 37° C. 1 g of the thermosensitive systems was placed into the […]. […] The medium extracted was replaced with the same amount of buffer. The results were normalized by the diffusion surface and the thickness of the calf hoof slides used.

Data set [3] can be described thus: Triamcinolone acetonide solubility in Pluronic F127NF / cyclodextrin systems. Format: physicochemical. The conditions noted are these: systems with Pluronic F127NF, HPB or MBCD; 25° C. On the procedure: Aqueous dispersions of Pluronic F127NF containing a 0.10 and 15%, were prepared by stirring the polymer in water at 4° C. to study the incorporation of the drug. Hydroxypropyl-β-cyclodextrin or partially methylated β-cyclodextrin at concentrations of 0, 0.5% and 10% were also incorporated. Triamcinolone acetonide was added in amounts that far exceeded its aqueous solubility and was stirred at 25° C. for a week. The amount of dissolved triamcinolone was determined spectrophotometrically after filtering the dispersions through a membrane filter of 0.45 micron pore size.

A short description of data set [4]: Penetration of triamcinolone acetonide through calf hoof, Franz-Chien cells. Format: in vitro ADME. The conditions noted are these: solutions in the absence of N-acetylcysteine. An excerpt: For the preparation of thermosensitive systems used in penetration studies through the nail we proceeded as it follows:
1.—Dispersion of the Pluronic F127NF at 10 or 20% (depending on the formulation) in cold water with magnetic stirring until complete dissolution.
2.—Incorporation of triamcinolone acetonide in quantities for concentrations close to saturation (see FIG. 1). […]
In the formulations containing partially methylated β-cyclodextrin, it was incorporated into the system at concentrations of 10% prior to the dissolution of triamcinolone acetonide in order to increase aqueous concentration of the drug (see FIG. 1).
To perform the penetration studies, cylindrical thin slices of calf hoof membrane (0.8-1 mm) were used. The bovine hoof samples were placed using two Teflon adapters between the donor and acceptor compartment of vertical Franz-Chien penetration cells. In the receptor compartment, phosphate buffer (pH 7.4) was added and maintained at 37° C. 1 g of the thermosensitive systems was placed into the […]. Samples from receptor solution were collected at scheduled time, determining the concentration of triamcinolone acetonide by HPLC. The results were normalized by the diffusion surface and the thickness of the calf hoof slides used.

Regarding `Cc1cc(C2CCCCC2)n(O)c(=O)c1` [Ciclopirox olamine], the “Effect of N-acetylcysteine or urea on ciclopirox olamine solubility” value in data set [1] is “significantly influences the solubility”. Besides, the “Diffusion and penetration of ciclopirox olamine through calf hoof” value in data set [2] was “did not detect drug diffusion and penetration”.
For `CC1(C)O[C@@H]2C[C@H]3[C@@H]4CCC5=CC(=O)C=C[C@]5(C)[C@@]4(F)[C@@H](O)C[C@]3(C)[C@]2(C(=O)CO)O1` [Triamcinolone acetonide], the “Effect of N-acetylcysteine on triamcinolone acetonide solubility” value in data set [3] was “did not alter the solubility”. Moreover, the “Penetration of triamcinolone acetonide through calf hoof” value in data set [4] is on record as “did not detect the penetration”.
